ChEMBL document CHEMBL1201862, “PubChem BioAssay data set” (2004)
Active and inactive are the calls of the source.

Legend:
[1] = molecular target: Beta-adrenergic receptor kinase 1 (Homo sapiens, UniProt P25098); test: blockers of aptamer binding to GRK2 – biochemical, flow cytometry beads, FAM-aptamer, powder set 1, dose response (AID 588720)
[2] = molecular target: T1, Carboxy-terminal domain RNA polymerase II polypeptide A small phosphatase 1 (Homo sapiens, UniProt Q9GZU7); test: CTDSP1 inhibitors, concentration-response, biochemical, absorbance readout, ultra-high-throughput screen actives (AID 540297); type: functional
T1 sequence (Q9GZU7 whole entry): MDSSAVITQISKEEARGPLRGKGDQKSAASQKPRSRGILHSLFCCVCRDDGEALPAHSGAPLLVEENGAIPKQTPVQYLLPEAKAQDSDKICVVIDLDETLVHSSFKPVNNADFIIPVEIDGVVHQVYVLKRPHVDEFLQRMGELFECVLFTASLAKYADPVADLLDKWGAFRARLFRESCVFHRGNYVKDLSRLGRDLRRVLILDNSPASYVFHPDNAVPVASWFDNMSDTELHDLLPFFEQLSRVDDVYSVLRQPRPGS

[3] = molecular target: Delta-type opioid receptor (Homo sapiens, UniProt P41143); test: Counterscreen for agonists of heterodimerization of the mu 1 (OPRM1) and delta 1 (OPRD1) opioid receptors: Luminescence-based cell-based high throughput dose response assay to identify agonists of OPRD1 homodimerization. [Related pubchem assays (depositor defined):AID504326, AID504355, AID504692, AID504904, AID504905]; type: functional
Mu-type opioid receptor = Mu-type opioid receptor (Homo sapiens, UniProt P35372); test: Counterscreen for agonists of heterodimerization of the mu 1 (OPRM1) and delta 1 (OPRD1) opioid receptors: Luminescence-based cell-based high throughput dose response assay to identify agonists of OPRM1 homodimerization.; type: functional;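 also: U2OS cells expressing OPRM1 and beta-arrestin as split beta-galactosidase partners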
[4] = molecular target: 5-hydroxytryptamine receptor 5A (Homo sapiens, UniProt P47898); test: Counterscreen for agonists of OPRM1-OPRD1 heterodimerization: luminescence-based cell-based high throughput dose response assay to identify agonists of 5-hydroxytryptamine (serotonin) 5A receptor (HTR5A). [Related pubchem assays (depositor defined):AID504326, AID504355, AID504692, AID504904, AID504905]; type: functional
Protein skinhead-1 = molecular target: T2, Protein skinhead-1 (Caenorhabditis elegans, UniProt P34707); type: functional
T2 sequence (P34707 whole entry): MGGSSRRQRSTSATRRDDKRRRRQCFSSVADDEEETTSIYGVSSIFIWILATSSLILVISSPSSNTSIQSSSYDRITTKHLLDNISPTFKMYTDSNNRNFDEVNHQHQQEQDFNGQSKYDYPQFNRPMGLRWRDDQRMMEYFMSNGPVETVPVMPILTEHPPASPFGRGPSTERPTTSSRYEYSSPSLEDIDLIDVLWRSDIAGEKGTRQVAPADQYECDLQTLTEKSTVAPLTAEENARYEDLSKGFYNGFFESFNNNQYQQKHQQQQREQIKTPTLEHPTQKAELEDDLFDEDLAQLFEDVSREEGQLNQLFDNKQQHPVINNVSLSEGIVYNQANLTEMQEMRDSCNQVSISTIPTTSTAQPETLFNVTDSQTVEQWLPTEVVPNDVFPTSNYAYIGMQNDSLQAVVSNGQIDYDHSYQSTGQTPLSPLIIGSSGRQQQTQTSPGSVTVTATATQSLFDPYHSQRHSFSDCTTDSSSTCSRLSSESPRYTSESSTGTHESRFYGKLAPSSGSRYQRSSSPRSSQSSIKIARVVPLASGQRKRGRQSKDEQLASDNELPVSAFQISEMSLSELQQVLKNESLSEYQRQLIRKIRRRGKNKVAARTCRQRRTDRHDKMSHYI

Cytochrome P450 3A4 = Cytochrome P450 3A4 (Homo sapiens, UniProt P08684);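 also: CYP3A4 tested as one member of a cytochrome P450 panel screen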
[5] = NIH-3T3 fibroblast cytotoxicity, dose response, cytotoxicity control, cell-based, fluorescence, Alamar Blue, secondary assay (AID 2327); type: functional;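 also: NIH-3T3 mouse fibroblasts cultured with fluconazole at 8 µg/mL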
[6] = decrease of insulin promoter-GFP reporter – imaging, high-content screening, mouse beta cells (AID 1628); type: functional; details: MIN6
[7] = system: Streptococcus sp. 'group A'; test: Streptococcus pyogenes SK(-)GAS viability under kanamycin – luminescence, BacTiterGlo, confirmation, counter-screen for streptokinase expression inhibitor project, dose response (AID 1900); type: functional, organism-based
cells [8] = type: functional, cell-based
[9] = MIN6 cell viability loss – mouse insulinoma, cytotoxicity control, dose response (AID 2122); type: functional;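 also: confirmatory high-throughput counterscreen run to flag cytotoxic compounds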
[10] = fluconazole-exposed Candida albicans growth modulators – fluorescence, retest, confirmation (AID 2467); type: functional, cell-based
[11] = HPDE-C7 pancreatic duct cell viability loss – fluorescence, HTS (AID 430); type: functional, cell-based; details: Homo sapiens
[12] = viability loss of HPDE-C7K cells – cell-based, fluorescence, HTS, primary screen (AID 431); type: functional; details: Homo sapiens
cells [13] = type: functional, cell-based; remark: listed apart in the source
[14] = molecular target: T3, Serine/threonine-protein phosphatase (Candida dubliniensis (strain CD36 / CBS 7987 / NCPF 3949 / NRRLY-17841) (Yeast), UniProt B9W6M3); test: blockers of CaCl2-induced CDRE-lacZ signaling – S. cerevisiae, luminescence, secondary, dose response (AID 2388); type: functional, cell-based;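 also: yeast reporter cells carrying a calcineurin-responsive lacZ construct stimulated with calcium chloride; luminescent beta-galactosidase reporter signal in whole cells rather than isolated phosphatase activity; potency for inhibition where a drop in reporter signal means calcineurin blockade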
T3 sequence (B9W6M3 whole entry): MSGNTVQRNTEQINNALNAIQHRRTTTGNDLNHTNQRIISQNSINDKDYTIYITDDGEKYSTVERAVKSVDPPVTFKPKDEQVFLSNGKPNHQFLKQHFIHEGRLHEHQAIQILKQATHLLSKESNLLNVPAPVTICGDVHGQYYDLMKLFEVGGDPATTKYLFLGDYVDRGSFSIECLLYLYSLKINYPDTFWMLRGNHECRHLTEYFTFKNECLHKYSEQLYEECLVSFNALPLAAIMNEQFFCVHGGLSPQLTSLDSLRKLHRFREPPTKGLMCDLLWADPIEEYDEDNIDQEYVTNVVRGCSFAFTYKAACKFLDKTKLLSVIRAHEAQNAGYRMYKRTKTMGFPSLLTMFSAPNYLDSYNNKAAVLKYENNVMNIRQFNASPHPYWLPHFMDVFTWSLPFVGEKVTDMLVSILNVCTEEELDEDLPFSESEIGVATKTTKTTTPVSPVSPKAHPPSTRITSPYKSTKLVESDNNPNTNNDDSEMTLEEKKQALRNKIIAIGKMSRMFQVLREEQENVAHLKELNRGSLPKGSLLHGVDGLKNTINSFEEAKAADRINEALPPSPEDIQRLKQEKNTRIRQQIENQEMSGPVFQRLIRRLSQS

Streptococcus = test: GAS UMAA2166 growth inhibition – luminescence, BacTiterGlo, counter-screen for streptokinase expression inhibitor project, dose response (AID 1915); type: functional, organism-based;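 also: potency for reduction of bacterial viability or growth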
Exodeoxyribonuclease V = Exodeoxyribonuclease V (Escherichia coli (strain K12), UniProt P04993+P07648+P08394); test: RecBCD inhibition via phage-restricted bacterial growth – absorbance, V66 E. coli, mutant T4 phage, counter-screen for AddAB inhibitor project, dose response (AID 492957); type: functional, cell-based, Escherichia coli str. K-12 substr. MG1655
[15] = Counterscreen for AddAB inhibitors: absorbance-based bacterial cell-based high throughput dose response assay for inhibitors of bacterial viability. [Related pubchem assays (depositor defined):AID435030, AID449728, AID449731, AID488942, AID488955, AID488956]; type: functional
HEK293 = test: EBV LMP1 TES2 canonical NF-kB signalling blockers – cell-based, HEK293, luciferase, cherry-pick, dose response (AID 588343); type: functional; details: Homo sapiens
[16] = molecular target: Heat shock protein HSP 90-alpha (Homo sapiens, UniProt P07900); type: functional, organism-based
Vero = test: cells; type: functional, cell-based; details: Chlorocebus sabaeus
[17] = molecular target: ATP-dependent molecular chaperone HSP82 (Candida albicans (strain WO-1) (Yeast), UniProt C4YTQ8); test: steroid-induced GRE reporter decrease in yeast – S. cerevisiae, luminescence, Hsp90 inhibitor project, dose response (AID 2400); type: functional, cell-based;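 also: beta-galactosidase luminescence from glucocorticoid response element reporter as proxy for Hsp90 function; inhibitor potency where signal loss means Hsp90 inhibition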
ATP-dependent molecular chaperone HSP82, sequence (C4YTQ8 whole entry): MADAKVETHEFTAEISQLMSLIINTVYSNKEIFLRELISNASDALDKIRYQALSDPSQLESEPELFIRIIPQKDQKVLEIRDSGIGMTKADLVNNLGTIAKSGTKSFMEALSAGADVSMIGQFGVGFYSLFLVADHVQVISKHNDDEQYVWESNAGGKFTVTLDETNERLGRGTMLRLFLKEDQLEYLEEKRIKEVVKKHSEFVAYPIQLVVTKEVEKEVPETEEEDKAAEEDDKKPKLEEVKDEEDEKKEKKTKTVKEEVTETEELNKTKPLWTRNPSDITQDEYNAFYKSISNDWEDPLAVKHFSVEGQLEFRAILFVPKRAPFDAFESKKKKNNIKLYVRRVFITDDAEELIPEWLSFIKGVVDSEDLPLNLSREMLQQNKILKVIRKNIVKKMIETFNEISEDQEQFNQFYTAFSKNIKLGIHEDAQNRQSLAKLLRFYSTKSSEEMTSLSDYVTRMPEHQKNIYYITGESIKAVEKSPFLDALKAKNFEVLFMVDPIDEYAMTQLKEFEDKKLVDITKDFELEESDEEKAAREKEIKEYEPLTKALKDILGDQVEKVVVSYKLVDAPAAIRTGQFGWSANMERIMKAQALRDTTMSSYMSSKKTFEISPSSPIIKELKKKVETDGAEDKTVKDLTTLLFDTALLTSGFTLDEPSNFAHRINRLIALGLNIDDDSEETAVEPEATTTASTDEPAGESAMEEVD

Exodeoxyribonuclease V, sequence (P04993 whole entry): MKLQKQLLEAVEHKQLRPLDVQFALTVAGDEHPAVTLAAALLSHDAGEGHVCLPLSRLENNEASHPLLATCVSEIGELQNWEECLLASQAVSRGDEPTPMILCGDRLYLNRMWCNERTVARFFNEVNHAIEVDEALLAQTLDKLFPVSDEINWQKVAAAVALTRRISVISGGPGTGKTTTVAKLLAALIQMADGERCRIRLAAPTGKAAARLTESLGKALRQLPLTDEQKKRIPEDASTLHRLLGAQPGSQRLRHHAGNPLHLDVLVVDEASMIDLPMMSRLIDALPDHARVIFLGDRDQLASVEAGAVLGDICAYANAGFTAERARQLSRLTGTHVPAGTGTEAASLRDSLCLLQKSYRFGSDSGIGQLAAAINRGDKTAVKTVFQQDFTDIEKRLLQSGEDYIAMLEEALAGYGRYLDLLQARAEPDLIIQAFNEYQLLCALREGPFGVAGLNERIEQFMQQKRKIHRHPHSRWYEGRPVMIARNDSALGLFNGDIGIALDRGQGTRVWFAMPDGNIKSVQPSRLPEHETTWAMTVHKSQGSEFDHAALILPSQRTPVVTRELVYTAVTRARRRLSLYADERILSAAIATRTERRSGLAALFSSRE
Exodeoxyribonuclease V, sequence (P07648 whole entry): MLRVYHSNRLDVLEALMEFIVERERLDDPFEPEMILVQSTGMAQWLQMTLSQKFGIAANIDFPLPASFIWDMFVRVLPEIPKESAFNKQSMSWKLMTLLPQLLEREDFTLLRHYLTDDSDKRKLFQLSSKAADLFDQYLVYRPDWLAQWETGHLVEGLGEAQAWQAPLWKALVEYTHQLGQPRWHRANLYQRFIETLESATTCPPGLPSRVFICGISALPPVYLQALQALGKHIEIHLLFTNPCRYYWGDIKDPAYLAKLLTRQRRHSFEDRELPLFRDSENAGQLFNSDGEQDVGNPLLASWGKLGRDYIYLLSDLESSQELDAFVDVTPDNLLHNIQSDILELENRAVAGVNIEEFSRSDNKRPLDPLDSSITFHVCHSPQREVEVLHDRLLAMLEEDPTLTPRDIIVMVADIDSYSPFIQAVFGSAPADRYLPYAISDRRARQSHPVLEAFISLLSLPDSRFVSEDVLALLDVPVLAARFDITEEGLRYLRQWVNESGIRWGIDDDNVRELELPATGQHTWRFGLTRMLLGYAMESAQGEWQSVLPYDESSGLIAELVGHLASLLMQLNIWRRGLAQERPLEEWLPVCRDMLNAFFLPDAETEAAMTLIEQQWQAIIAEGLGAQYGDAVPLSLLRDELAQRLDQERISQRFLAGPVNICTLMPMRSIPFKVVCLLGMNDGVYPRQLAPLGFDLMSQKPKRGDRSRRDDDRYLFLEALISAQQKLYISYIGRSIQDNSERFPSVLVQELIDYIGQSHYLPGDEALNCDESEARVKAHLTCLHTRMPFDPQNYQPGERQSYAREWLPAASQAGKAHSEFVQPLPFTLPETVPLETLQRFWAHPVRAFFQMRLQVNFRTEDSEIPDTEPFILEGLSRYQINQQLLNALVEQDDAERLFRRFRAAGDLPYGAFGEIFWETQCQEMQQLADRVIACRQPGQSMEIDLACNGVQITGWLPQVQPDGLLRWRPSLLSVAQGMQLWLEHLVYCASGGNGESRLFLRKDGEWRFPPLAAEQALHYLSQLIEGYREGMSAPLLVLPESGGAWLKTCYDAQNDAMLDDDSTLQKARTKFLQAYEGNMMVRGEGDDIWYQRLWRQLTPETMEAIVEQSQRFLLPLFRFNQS
Exodeoxyribonuclease V, sequence (P08394 whole entry): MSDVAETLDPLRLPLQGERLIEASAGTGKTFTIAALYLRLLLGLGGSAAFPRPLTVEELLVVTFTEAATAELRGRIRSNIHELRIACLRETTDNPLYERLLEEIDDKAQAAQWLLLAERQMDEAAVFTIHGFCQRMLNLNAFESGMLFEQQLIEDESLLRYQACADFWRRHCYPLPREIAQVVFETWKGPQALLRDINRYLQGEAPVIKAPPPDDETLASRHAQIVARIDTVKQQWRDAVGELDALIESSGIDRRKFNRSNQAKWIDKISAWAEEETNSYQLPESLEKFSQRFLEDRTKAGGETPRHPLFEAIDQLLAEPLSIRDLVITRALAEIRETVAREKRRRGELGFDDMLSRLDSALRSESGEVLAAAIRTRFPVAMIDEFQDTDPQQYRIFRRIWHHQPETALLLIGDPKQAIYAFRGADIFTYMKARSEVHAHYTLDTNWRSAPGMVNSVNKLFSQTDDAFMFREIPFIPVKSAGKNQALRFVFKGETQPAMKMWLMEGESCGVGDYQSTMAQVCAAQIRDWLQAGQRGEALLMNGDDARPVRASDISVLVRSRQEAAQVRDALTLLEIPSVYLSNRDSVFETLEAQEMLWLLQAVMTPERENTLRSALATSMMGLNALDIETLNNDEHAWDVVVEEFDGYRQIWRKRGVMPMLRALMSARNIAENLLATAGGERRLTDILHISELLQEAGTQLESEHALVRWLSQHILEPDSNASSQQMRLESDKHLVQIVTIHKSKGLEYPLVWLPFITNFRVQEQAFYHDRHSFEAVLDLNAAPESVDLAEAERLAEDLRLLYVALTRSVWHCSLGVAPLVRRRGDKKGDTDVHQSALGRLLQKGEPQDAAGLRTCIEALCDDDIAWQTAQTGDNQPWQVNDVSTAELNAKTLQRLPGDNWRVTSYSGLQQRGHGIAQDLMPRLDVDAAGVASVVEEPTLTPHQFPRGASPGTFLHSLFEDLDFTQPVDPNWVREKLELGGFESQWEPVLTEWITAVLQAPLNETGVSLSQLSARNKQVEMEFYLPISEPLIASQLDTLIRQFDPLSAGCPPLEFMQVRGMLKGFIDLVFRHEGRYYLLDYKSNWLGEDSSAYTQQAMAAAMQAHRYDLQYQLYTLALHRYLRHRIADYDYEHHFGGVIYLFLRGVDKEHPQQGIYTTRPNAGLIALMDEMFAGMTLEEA
5-hydroxytryptamine receptor 5A, sequence (P47898 whole entry): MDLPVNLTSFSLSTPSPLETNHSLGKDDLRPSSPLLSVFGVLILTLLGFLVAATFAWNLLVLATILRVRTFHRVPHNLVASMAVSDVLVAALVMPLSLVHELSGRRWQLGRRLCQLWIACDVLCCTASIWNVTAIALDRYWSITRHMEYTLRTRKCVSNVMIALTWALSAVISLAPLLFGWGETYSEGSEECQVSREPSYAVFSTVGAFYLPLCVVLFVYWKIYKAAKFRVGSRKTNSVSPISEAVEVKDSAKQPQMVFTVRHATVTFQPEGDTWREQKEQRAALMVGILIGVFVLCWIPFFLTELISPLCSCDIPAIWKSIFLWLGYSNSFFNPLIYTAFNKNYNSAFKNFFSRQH
Delta-type opioid receptor, sequence (P41143 whole entry): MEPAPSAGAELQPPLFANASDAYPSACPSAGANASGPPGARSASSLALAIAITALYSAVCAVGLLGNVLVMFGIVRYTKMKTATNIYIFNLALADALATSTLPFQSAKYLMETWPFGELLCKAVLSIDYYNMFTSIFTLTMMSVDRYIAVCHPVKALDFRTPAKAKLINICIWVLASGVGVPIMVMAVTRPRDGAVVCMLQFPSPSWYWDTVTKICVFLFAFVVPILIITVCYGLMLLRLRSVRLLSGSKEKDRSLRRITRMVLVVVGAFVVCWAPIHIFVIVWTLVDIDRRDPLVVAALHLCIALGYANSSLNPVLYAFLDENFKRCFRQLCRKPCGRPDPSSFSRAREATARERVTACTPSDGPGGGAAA
Beta-adrenergic receptor kinase 1, sequence (P25098 whole entry, the tested form may be a part): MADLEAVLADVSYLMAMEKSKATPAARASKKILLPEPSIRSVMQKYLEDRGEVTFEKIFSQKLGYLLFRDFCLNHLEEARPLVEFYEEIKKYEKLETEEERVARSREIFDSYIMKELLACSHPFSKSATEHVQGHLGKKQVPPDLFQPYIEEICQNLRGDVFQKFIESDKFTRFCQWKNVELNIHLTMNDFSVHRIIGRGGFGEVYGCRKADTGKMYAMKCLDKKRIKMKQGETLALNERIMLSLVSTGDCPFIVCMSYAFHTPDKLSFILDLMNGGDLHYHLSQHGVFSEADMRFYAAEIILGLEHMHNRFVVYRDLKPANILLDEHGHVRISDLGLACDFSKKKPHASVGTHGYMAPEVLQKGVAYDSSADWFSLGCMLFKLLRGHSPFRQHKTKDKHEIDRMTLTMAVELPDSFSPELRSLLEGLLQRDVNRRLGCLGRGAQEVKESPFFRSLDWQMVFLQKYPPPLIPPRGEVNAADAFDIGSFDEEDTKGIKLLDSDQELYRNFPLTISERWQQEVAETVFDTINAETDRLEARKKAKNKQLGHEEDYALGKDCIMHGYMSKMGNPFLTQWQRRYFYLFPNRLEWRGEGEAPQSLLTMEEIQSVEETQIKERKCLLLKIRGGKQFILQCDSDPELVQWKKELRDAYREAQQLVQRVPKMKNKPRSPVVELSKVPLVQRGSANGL

## O=C(CCS(=O)(=O)c1ccc(Br)cc1)NCc1cccs1
[1]
  EC50: 1.79 µM (active)
[2]
  IC50: 48 µM (active)

## OC(CN1CCN(C(c2ccccc2)c2ccccc2)CC1)c1ccccc1 (centres undefined)
[3]
  EC50: > 92.6 µM (inactive)
Mu-type opioid receptor
  EC50: > 92.6 µM (inactive)
[4]
  EC50: > 92.6 µM (inactive)
Protein skinhead-1
  IC50: > 100 µM (inactive)

## COCC(=O)N1CCC2(CC1)CN(C(c1ccccc1)c1ccccc1)C2
Cytochrome P450 3A4
  AC50: inconclusive

## Oc1c(C(Nc2nc3ccccc3s2)c2ccco2)ccc2cccnc12 (centres undefined)
[5]
  EC50: 12.9 µM (active)
[6]
  IC50: 1.21 µM (active)
[7]
  EC50: 1.76 µM (active)
Cells [8]
  EC50: 9.09 µM (active)
[9]
  IC50: 0.896 µM (active)
[10]
  EC50: 0.854 µM (active)
[11]
  EC50: 8.6 µM (active)
[12]
  EC50: 6.19 µM (active)
Cells [13]
  EC50: > 350 µM (not active)
[14]
  EC50: > 180 µM (inactive)
Streptococcus
  EC50: 5.98 µM (active)
Exodeoxyribonuclease V
  IC50: > 119 µM (inactive)
[15]
  IC50: > 119 µM (inactive)
HEK293
  AC50: 6.93 µM (active)
[16]
  AC50: 24.1 µM (active)
Vero
  IC50: > 25 µM (active)
[17]
  EC50: 33.4 µM (active)
